The record followed here is US8492404B2, “Bis-aryl amide compounds and methods of use” (Amgen Inc., priority 2005, dated 2013).

The IC50 is the midpoint of a concentration-inhibition curve.

T2 sequence (P10721 589-937 limits assumed): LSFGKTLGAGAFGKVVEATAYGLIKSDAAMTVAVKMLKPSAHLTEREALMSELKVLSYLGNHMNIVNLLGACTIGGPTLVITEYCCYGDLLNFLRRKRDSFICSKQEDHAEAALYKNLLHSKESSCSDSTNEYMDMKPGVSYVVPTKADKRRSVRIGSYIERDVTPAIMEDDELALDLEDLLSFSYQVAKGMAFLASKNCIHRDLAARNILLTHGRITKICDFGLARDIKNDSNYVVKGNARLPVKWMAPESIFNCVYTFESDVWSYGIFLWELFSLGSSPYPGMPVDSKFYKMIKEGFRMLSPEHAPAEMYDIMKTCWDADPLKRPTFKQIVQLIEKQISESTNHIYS

In one experiment the target is T1, Lck kinase enzyme (Homo sapiens, UniProt P06239).
T1 construct: LCK KD GST (225-509); GST
T1 sequence (P06239 225-509): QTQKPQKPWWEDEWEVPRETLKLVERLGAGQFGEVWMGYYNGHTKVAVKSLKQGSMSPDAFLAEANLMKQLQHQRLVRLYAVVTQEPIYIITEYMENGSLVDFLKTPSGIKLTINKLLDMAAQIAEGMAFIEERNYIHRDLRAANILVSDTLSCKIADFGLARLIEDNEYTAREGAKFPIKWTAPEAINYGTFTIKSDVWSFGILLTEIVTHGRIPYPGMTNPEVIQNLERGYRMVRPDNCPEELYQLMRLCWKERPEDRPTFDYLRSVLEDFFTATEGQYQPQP
In words: LCK-Homogeneous Time Resolved Fluorescent (HTRF) Kinase Assay. Type of experiment: biochemical. Conditions: read-out: average IC50 value for the inhibition of the Lck kinase enzyme. The procedure: LCK-Homogeneous Time Resolved Fluorescent (HTRF) Kinase Assay:
The LCK HTRF assay begins with LCK in the presence of ATP phosphorylating the biotinylated peptide Gastrin. The reaction incubates for 90 min. To quench the assay detection reagents are added which both stop the reaction by diluting out the enzyme and chelating the metals due to the presence of EDTA. Once the detection reagents are added the assay incubates for 30 min to allow for equilibration of the detection reagents. […] Buffer conditions are as follows: 50 mM HEPES pH 7.5, 50 mM NaCl, 20 mM MgCl, 5 mM MnCl, 2 mM DTT, 0.05% BSA.
The assay is quenched and stopped with 160 μL of detection reagent. Detection reagents are as follows: Buffer made of 50 mM Tris, pH 7.5, 100 mM NaCl, 3 mM EDTA, 0.05% BSA, 0.1% Tween20.
The assay plate is read in either a Discovery or a RubyStar.
For orientation: In TR-FRET formats the signal depends on donor and acceptor labels being close together.
Consider `Cc1ccc(NC(=O)Nc2cccc(C(F)(F)F)c2)cc1C(=O)Nc1cncnc1` [Example 88, 1-(4-methyl-3-(pyrimidin-5-ylcarbamoyl)phenyl)-3-(3-(trifluoromethyl)phenyl)urea], for which the IC50 is no more than 10 µM.
Same read-out and setting: the value for `Cc1ccc(NC(=O)c2cc3ccccc3n2C)cc1C(=O)Nc1cnc(Nc2ccc(N3CCN(C)CC3)cc2)nc1` [Example 96, 1-methyl-N-(4-methyl-3-((2-(4-(4-methylpiperazin-1-yl)phenylamino)pyrimidin-5-yl)carbamoyl)phenyl)-1H-indole-2-carboxamide] was no more than 10 µM.

The next experiment addresses T2, c-kit kinase enzyme (Homo sapiens, UniProt P10721).
T2 construct: cKIT (6.25 μM) (catalytic domain, N-terminal GST tagged, unphosphorylated)
In words: cKIT-Homogeneous Time Resolved Fluorescent (HTRF) Kinase Assay. It counts as biochemical. Conditions: read-out: average IC50 value for the inhibition of the c-kit kinase enzyme. The procedure: cKIT-Homogeneous Time Resolved Fluorescent (HTRF) Kinase Assay:
The purpose of this assay is to measure the inhibition of cKIT enzyme activity (autophosphorylation and phosphorylation of substrate) by small molecule test compounds. The cKIT HTRF assay begins with cKIT-catalyzed phosphorylation of biotinylated peptide Her-2 (N-[…]-C) in the presence of ATP. The cKIT enzyme reaction is comprised of 1 μL of compound in 100% DMSO, 15 μL of 2× substrate mix (50 μM ATP and 2 μM biotinylated Her-2) and 15 μL of 2× cKIT (6.25 μM) (catalytic domain, N-terminal GST tagged, unphosphorylated) in 4 mM DTT all diluted in enzyme buffer (25 mM HEPES pH 7.5, 12.5 mM NaCl, 50 mM MgCl, 0.05% BSA). The reaction incubates for 90 min at room temperature. One-hundred and sixty microliters of detection mixture containing 0.47 μg/mL steptavidin allophycocyanin and 29.7 pM europylated anti-phosphotyrosine Ab (PT66, Perkin Elmer) in HTRF buffer (100 mM Hepes pH 7.5, 100 mM NaCl, 0.1% BSA, 0.05% Tween 20) is then added to stop the reaction by diluting out the enzyme as well as to enable quantitation of phosphorylated Her-2. After 3 h at room temperature, the detection reaction is read in a Packard Discovery™ (model BD1000) plate reader. The wells are excited with coherent […] light and the ratio of delayed ([…] post excitation) emissions at […] (native europium fluorescence) and 665 nm (europium fluorescence transferred to allophycocyanin—an index of substrate phosphorylation) is determined. The proportion of substrate phosphorylated in the kinase reaction in the presence of compound compared with that phosphorylated in the presence of DMSO vehicle alone (HI control) is calculated using the formula: % control (POC)=(cpd−average LO)/(average HI−average LO)*100. Data (consisting of POC and inhibitor concentration in μM) is fitted to a 4-parameter equation (y=A+((B−A)/(1+((x/C)^D))), where A is the minimum y (POC) value, B is the maximum y (POC), C is the x (cpd concentration) at the point of inflection and D is the slope factor) using a Levenburg-Marquardt non-linear regression algorithm.
Take `Cc1ccc(NC(=O)Nc2cccc(C(F)(F)F)c2)cc1C(=O)Nc1cnc(N)nc1` [Example 90, N-(2-amino-5-pyrimidinyl)-2-methyl-5-((((3-(trifluoromethyl)phenyl)amino)carbonyl)amino)benzamide]: the IC50 was no more than 10 µM.
`Cc1ccc(NC(=O)c2cccc(C(F)(F)F)c2)cc1C(=O)Nc1cnc(N)nc1` [Example 1, N-(2-amino-5-pyrimidinyl)-2-methyl-5-(((3-(trifluoromethyl)phenyl)carbonyl)amino)benzamide]: the 50% inhibitory concentration (IC50) was no more than 10 µM.
On to `Cc1ccc(NC(=O)Nc2cccc(C(F)(F)F)c2)cc1C(=O)Nc1cncnc1` [Example 88, 1-(4-methyl-3-(pyrimidin-5-ylcarbamoyl)phenyl)-3-(3-(trifluoromethyl)phenyl)urea], for which the IC50 is no more than 10 µM.
For `Cc1ccc(NC(=O)c2cc(I)ccc2O)cc1C(=O)Nc1cnc(Nc2ccc(N3CCN(C)CC3)cc2)nc1` [Example 112, 2-hydroxy-5-iodo-N-(4-methyl-3-(((2-((4-(4-methyl-1-piperazinyl)phenyl)amino)-5-pyrimidinyl)amino)carbonyl)phenyl) benzamide], the concentration for half-maximal inhibition (IC50) is no more than 10 µM.
Consider `Cc1ccc(NC(=O)c2cccc(C(F)(F)F)c2)cc1C(=O)Nc1cnc(NCCN2CCOCC2)nc1` [Example 2], for which the half-inhibitory concentration (IC50) is no more than 10 µM.
With `Cc1ccc(NC(=O)c2ccc3ncsc3c2)cc1C(=O)Nc1cnc(N)nc1` [Example 109, N-(3-((2-aminopyrimidin-5-yl)carbamoyl)-4-methylphenyl)benzo[d] thiazole-6-carboxamide], the IC50 was no more than 10 µM.
With `Cc1ccc(C(=O)NCCC2CCCCC2)cc1C(=O)Nc1ccc(N)nc1` [Example 182, N~3~-(6-amino-3-pyridinyl)-N~1~-(2-cyclohexylethyl)-4-methyl-1,3-benzenedicarboxamide], the IC50 is no more than 10 µM.
`Cc1ccc(NC(=O)c2csc(-c3cccs3)n2)cc1C(=O)Nc1cnc(Nc2ccc(N3CCN(C)CC3)cc2)nc1` [Example 141]: the half-maximal inhibitory concentration (IC50) is no more than 10 µM.
Turning to `Cc1ccc(NC(=O)c2ccc(Cl)c(C(F)(F)F)c2)cc1C(=O)Nc1cnc(Nc2ccc(N3CCN(C)CC3)cc2)nc1` [Example 113, 4-chloro-N-(4-methyl-3-(((2-((4-(4-methyl-1-piperazinyl)phenyl)amino)-5-pyrimidinyl)amino)carbonyl)phenyl)-3-(trifluoromethyl) benzamide], the half-inhibitory concentration (IC50) is no more than 10 µM.
Same read-out and setting: the value for `Cc1ccc(NC(=O)c2cc3ccccc3n2C)cc1C(=O)Nc1cnc(Nc2ccc(N3CCN(C)CC3)cc2)nc1` [Example 96, 1-methyl-N-(4-methyl-3-((2-(4-(4-methylpiperazin-1-yl)phenylamino)pyrimidin-5-yl)carbamoyl)phenyl)-1H-indole-2-carboxamide] was no more than 10 µM; that for `Cc1ccc(C(=O)NCCC2CCCC2)cc1C(=O)Nc1ccc(NC(=O)c2c[nH]cn2)nc1` [Example 206, N~1~-(2-cyclopentylethyl)-N~3~-(6-((1H-imidazol-4-ylcarbonyl)amino)-3-pyridinyl)-4-methyl-1,3-benzenedicarboxamide] was no more than 10 µM; that for `Cc1ccc(NC(=O)c2ccc3[nH]ccc3c2)cc1C(=O)Nc1cnc(N)nc1` [Example 110, N-(3-((2-aminopyrimidin-5-yl)carbamoyl)-4-methylphenyl)-1H-indole-5-carboxamide] was no more than 10 µM.
